From publication PMC3454376, “Salidroside Improves Behavioral and Histological Outcomes and Reduces Apoptosis via PI3K/Akt Signaling after Experimental Traumatic Brain Injury” (PLoS ONE, 2012)

How the values were obtained:
[1] = tested on: mice subjected to controlled cortical impact injury; assay: Residual cerebral tissue ratio, cresyl violet staining; format: in vivo; settings: icv LY294002 30 min before CCI, then SALD 20 mg/kg ip (S20LY group); day 28; P<0.05 vs S20S
Method: All animal procedures were approved by the Animal Research Committee at Cheng Hsin General Hospital (Animal permit number CHIACUC 101–08), and all procedures complied with the Guide for the Care and Use of Laboratory Animals published by the US National Institutes of Health (NIH Publication No. 85–23, revised 1996). Animals were housed under a 12-h light/dark cycle and at constant temperature (21–25°C) and humidity (45–50%). They were allowed free access to pellet chow and water. TBI in mice was induced by a CCI injury model as previously described. Briefly, 8-week-old male C57BL/6 mice (weighing 22–25 g) were anesthetized through the use of intraperitoneal injection of sodium pentobarbital (65 mg/kg; Rhone Merieux, Harlow, UK) and placed in a stereotaxic frame. A 5 mm craniotomy was performed over the right parietal cortex, centered on the coronal suture and 0.1 mm lateral to the sagittal suture, and injury to dura was avoided. Injury was induced using a pneumatic piston with a rounded metal tip (2.5 mm diameter) that was angled 22.5° to the vertical so that the tip was perpendicular with the brain surface at the center of the craniotomy. The impact, with a velocity of […] and a deformation depth of 2 mm below the dura, was applied. The bone flap was immediately replaced and sealed, and the scalp was sutured. Body temperature was monitored throughout the surgery by a rectal probe; temperature was maintained at 37.0±0.5°C using a heated pad. Mice were placed in a heated cage to maintain body temperature, while recovering from anesthesia. Sham-operated mice underwent the same procedure as injured mice, but without CCI.
(§1) Mice were anesthetized and positioned in a stereotaxic frame. LY294002 (200 nM in 0.5 µL of saline) or equal amount of physiological saline was intracerebroventricularly (icv) injected at 30 min before CCI as previously described. A 1 mm cranial burr hole was drilled into the skull. A 30-gauge needle on a Hamilton syringe was implanted into the lateral ventricle using stereotactic coordinates: 1.5 mm posterior to bregma and 1.0 mm right lateral to the midline, 2 mm in depth. LY294002 or saline was infused into the brain at a rate of 0.05 µL/min over 10 min with an infusion pump (KDS 310, KD Scientific Inc., Holliston, MA, USA), and the needle was left in place for an additional 20 min to prevent reflux. After the needle was removed, CCI procedure was conducted immediately. Sham-operated mice were infused icv with saline, but were not subjected to CCI.
Three sets of experiments were performed. […] To determine the optimal dose of salidroside, a pilot study was performed using 2 different doses (20 and 50 mg/kg) administered 10 min after injury, and neurological deficits and tissue damage were evaluated as the main outcomes. […]

p-Bad = assay: Western blot, injured cortex; format: in vivo, mice
Method: as §1
(§2) Three sets of experiments were performed. The first set was to investigate the protective effects of salidroside. All animals were randomized into 1 of 3 groups (sham injury, CCI + vehicle, CCI + SALD 20). Surgery/injury, behavioral testing, and tissue analyses were performed by different individuals. Behavioral testing and tissue analyses were performed by individuals blinded to the treatment group. Salidroside (Cayman Chemical, Ann Arbor, MI, USA) dissolved in normal saline (0.25 mL) or a corresponding volume of vehicle (saline) was administered intraperitoneally 10 min following injury. Testing after injury was completed as follows: 1) behavioral testing at days 1, 4, 7, 14, 21, and 28 (n = 8–10 mice/group); 2) cresyl violet staining at day 28 (n = 9 mice/group); 3) histology, determination of brain water content, and western blot analysis at day 1 or 3 (n = 5–6 mice/group). To determine the optimal dose of salidroside, a pilot study was performed using 2 different doses (20 and 50 mg/kg) administered 10 min after injury, and neurological deficits and tissue damage were evaluated as the main outcomes. […] The second set of experiment was to assess the effect of the inhibition of PI3K/Akt with the specific PI3K inhibitor, LY294002 (Cell Signaling Technology, Danvers, MA, USA), on salidroside effects. Animals were randomized into 4 groups. Mice received either: 1) icv pretreatment of LY294002 followed by SALD 20 after CCI (S20Y group); or 2) icv pretreatment of saline (vehicle control) followed by SALD 20 after CCI (S20V group). 3) Mice were infused icv with saline and were subjected to sham injury. 4) Mice were infused icv with LY294002 and were subjected to sham injury. Testing after injury was completed as follows: 1) cresyl violet staining at day 28 (n = 6 mice/group); 2) western blot analysis at day 1 (n = 6 mice/group). The third set of experiment was performed to examine the neuroprotective time window afforded by salidroside. Mice received intraperitoneal SALD 20 or vehicle (saline) at 3 or 6 h following CCI and were sacrificed 1 day later for FJB staining and western blot analysis (n = 6 mice/group).
(§3) Brains of injured or sham animals were collected 1 day and 3 days post CCI or sham surgery, and a 4 mm coronal section from the injured area over the parietal cortex and ipsilateral hippocampus were collected. The protein samples were obtained from tissue homogenates in 300 µL of ice-cold reagent (T-PER reagent; Pierce Biotechnology, Rockford, IL, USA) with a complete mini protease inhibitor cocktail (Roche Molecular Biochemicals) centrifuged at 14000g for 30 min. Protein concentration was determined by Bradford reagent spectrophotometrically at A595. Equal amounts of protein samples were denatured in gel-loading buffer at 100°C for 5 min, and then loaded onto sodium dodecyl sulfate-polyacrylamide gels to be separated. Separated proteins were transferred to Immobilon-P membranes (Millipore, Billerica, MA, USA), blocked with the use of 5% milk in PBST and probed with primary antibodies. […]

p-FOXO1 = assay: Western blot, injured cortex; format: in vivo, mice
Method: as §1, §2, §3

p-Akt Ser473 = assay: Western blot, injured cortex; format: in vivo, mice
Method: as §1, §2, §3

p-Akt Thr308 = assay: Western blot, injured cortex; format: in vivo, mice; settings: icv LY294002 30 min before CCI + SALD 20 mg/kg ip (S20LY); day 1; P<0.05
Method: as §1, §2, §3

[2] = icv LY294002 30 min before CCI + SALD 20 mg/kg ip, day 1, P>0.05

## O=c1cc(N2CCOCC2)oc2c(-c3ccccc3)cccc12 [LY294002, reference compound]
[1]
  residual cerebral tissue ratio: 71.0±6.3%
p-Bad; [2]
  p-Bad level, S20LY versus S20V group: similar
p-Bad; icv LY294002, sham injury
  Bad phosphorylation in sham-operated mice: did not affect
p-FOXO1; icv LY294002 30 min before CCI + SALD 20 mg/kg ip (S20LY), day 1, P<0.05
  p-FOXO1 level, % of the S20V level: 41.6%
p-FOXO1; icv LY294002, sham injury
  FOXO1 phosphorylation in sham-operated mice: did not affect
p-Akt Ser473; [2]
  p-Akt Ser473 level, S20LY versus S20V group: similar
p-Akt Ser473; icv LY294002, sham injury
  Akt phosphorylation (Ser473 and Thr308) in sham-operated mice: did not affect
p-Akt Thr308
  p-Akt Thr308 level, % of the S20V level: 58.1%
